Data: patent USRE40387E1, “Pharmaceutical compositions, dosage forms and methods for oral administration of epothilones” (Bristol-Myers Squibb Company, priority 2001, dated 2008)

test: Caco-2 cell permeability; settings: human, Caco-2
Description: The Pc of some model compounds, for which the bioavailability in humans is known, was also determined in the same experiment.

| SMILES | Papp [×10⁻⁶ cm/s] |
| --- | --- |
| CC(=O)Nc1ccc(O)cc1 [acetaminophen, reference compound] | > 20 |
| CC(C)Cc1ccc(C(C)C(=O)O)cc1 (stereo not drawn) [ibuprofen, reference compound] | > 20 |
| O=C(O)c1ccccc1O [salicylic acid, reference compound] | > 20 |
